This note sets out measurements from patent publication US6994849B2, “Yeast Metschnikowia fructicola NRRL Y-30752 for inhibiting deleterious microorganisms on plants” (State of Israel, Ministry of Agriculture, Agricultural …, priority 2001, dated 2006).

This assay deals with Mf. Nature of the assay: Compatibility of Mf with agrochemicals (CFU in liquid medium). In kind it is cell-based, Metschnikowia fructicola. Conditions: TBZ 0.02%; Teldor 0.015%; Mitos 0.025%; Rovral 0.02%; Switch 0.01%; Imazalil 0.005%; 0-48 h, FIG. 8. As for the experimental part:
In order to establish that Mf is suitable for combination with a variety of commonly employed chemical pesticides, ten percent strength of liquid medium (NYDB) with various concentrations of common agrochemicals added was inoculated with a cell suspension of Mf (25 ml of 10^9 cell/ml) and incubated on a rotary shaker at room temperature. The following commercially available agrochemicals were employed: TBZ (0.02%); Teldor (0.015%); Mitos (0.025%); Rovral (0.02%); Switch (0.01%); and Imazalil (0.005%). Samples were aseptically withdrawn from the at 0 time, 24 h and 48 h of incubation. Samples were serially diluted and aliquots of 30 μl of the dilutions were plated on PDA. Plates were incubated at 25° C. for 3–4 days and colony forming units (CFU) were counted.

Turning to `C=CCOC(Cn1ccnc1)c1ccc(Cl)cc1Cl` (stereo not shown) [Imazalil, 1-(2-2,4-Dichlorophenyl)-2(2-propenyloxy-ethyl)-1Himidazol], the “Effect of agrochemical on growth (CFU) of Mf” value is given as “slowed, but did not prevent, its growth”.
